Values quoted from earlier work, collected in US20070025948A1, “Dilution-type sterilizer composition” (Dainippon Sumitomo Pharma Co. Ltd, priority 2003, published 2007).
Counter-ions that a name gives are not always drawn. Like-named read-outs stand apart in the source and are kept apart here.

What was measured:
[1] = 20° C.
[2] = hydrophilic-lipophilic balance, from new Surfactant Handbook

Compound | solubility in water [1] | HLB [2] | also measured
[H]/N=C(\N/C(=N/[H])NCCCCCCNC(=N)NC(=N)Nc1ccc(Cl)cc1)Nc1ccc(Cl)cc1 [chlorhexidine hydrochloride] |  |  | solubility in water ([1]; hydrochloride): 0.06 w/v %
CCCCCCCCCCCCOS(=O)(=O)[O-].[Na+] [sodium lauryl sulfate] |  | ~40 | 
CCCCCCCCCCCCCCCCCC(=O)[O-].[Na+] [sodium stearate] |  | 18 | 

Continued, in another order:

solubility in water [1] | Compound | HLB [2] | also measured
0.08 w/v % | [H]/N=C(\N/C(=N/[H])NCCCCCCNC(=N)NC(=N)Nc1ccc(Cl)cc1)Nc1ccc(Cl)cc1 [Chlorhexidine] |  | 
not less than 50 w/v % | [H]/N=C(\N/C(=N/[H])NCCCCCCNC(=N)NC(=N)Nc1ccc(Cl)cc1)Nc1ccc(Cl)cc1 [chlorhexidine gluconate] |  | 
